The subject of one assay is CU-ACC2. Nature of the assay: area under concentration-response curve (viability) (AUC (a.u.)); higher = less active. The settings on record: 48 h. The gist of the method: (§1)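 Three adrenocortical carcinoma cell lines in 1,536-well plates received 23 nL of each library compound at 11 concentrations and were read with CellTiter-Glo after 48 h, with 15 minutes at room temperature before measuring luminescence. Vehicle and empty-well controls served for per-plate normalisation. AC50 and area under the curve were extracted from fitted concentration-response curves, discarding all curve classes other than inhibitory or non-responding.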

For another assay, the system named is NCI-H295R. The description is as above. The settings on record: 48 h. The method in brief: as §1

Each structure is given as a SMILES string.

Turning to `CCN(CC)CCCC(C)Nc1nc(C)cc(Nc2ccc3nc(C)cc(N)c3c2)n1` (configuration not stated), the results for the “area under concentration-response curve” value in the assay on CU-ACC2 and in the assay on NCI-H295R were 478 and 507, respectively.
Turning to `CC/C(=C(\c1ccccc1)c1ccc(OCCN(C)C)cc1)c1ccccc1`, the “area under concentration-response curve” value with CU-ACC2 came to 455; in the assay with NCI-H295R, 554.
The like results for `O=NN(CCCl)C(=O)NC1CCCCC1` were, in that order, 503 and 538.
Regarding `CC(NC(C)(C)C)C(=O)c1cccc(Cl)c1` (configuration not stated), the “area under concentration-response curve” value with CU-ACC2 was 526; in the assay with NCI-H295R, 509.
The like results for `CNC(=O)c1ccc2cc(C3(O)CCn4cncc43)ccc2c1` (configuration not stated) were, in that order, 599 and 556.
Taken in the same sequence, the figures for `C[S+](=O)([O-])c1ccc(-c2cnc(N)c(C(=O)Nc3ccccc3)n2)cc1` were 473 and 534.
As for `Nc1nc(N)c2nc(-c3cccc(Cl)c3)c(N)nc2n1`, the “area under concentration-response curve” value turned out to be 596 with CU-ACC2 and 520 in the assay with NCI-H295R.
With `OC(=O)C/1=C/C(=O)NC(=O)N1`, the “area under concentration-response curve” value in the assay with CU-ACC2 stood at 530; in the assay with NCI-H295R, 529.
Taken in the same sequence, the figures for `CC[C@]12CC[C@H]3[C@@H](CCC/4=C/C(=O)CC[C@H]34)[C@@H]1\C=C/[C@@]2(O)C#C` were 623 and 602.
On to `O=C(NC[C@H](O)CN1CCc2ccccc2C1)c1ccnc(NC2CCC2)c1`, for which the “area under concentration-response curve” value in the assay on CU-ACC2 was 535; with NCI-H295R, 539.
With `NCCOc1cc(C(=O)Nc2cc(OCCN)c3ccccc3n2)nc(C(=O)Nc2cc(OCCN)c3ccccc3n2)c1`, the entries for the “area under concentration-response curve” value in the assay with CU-ACC2 and in the assay with NCI-H295R were 454 and 507, respectively.
Consider `CCCCOc1ccc(CC(=O)NO)cc1`, for which the “area under concentration-response curve” value in the assay on CU-ACC2 was determined as 631; with NCI-H295R it was 573.
As to `Cc1ccc(NC(=O)[C@H]2CCCN(C(=O)c3c(C)cccc3F)[C@H]2c2ccc(NC3CCCC3)cc2)cc1C(F)(F)F`, the entries for the “area under concentration-response curve” value in the assay with CU-ACC2 and in the assay with NCI-H295R were 561 and 521, respectively.
Taken in the same sequence, the figures for `NC(=O)c1ccc(N(C(N)=O)c2c(F)cccc2F)nc1-c1ccc(F)cc1F` were 440 and 471.
Regarding `C/C(NNC(=O)c1cccc([S+](=O)([O-])N2CCOCC2)c1)=C1\C=C(Cl)C=CC1=O`, the “area under concentration-response curve” value in the assay on CU-ACC2 was determined as 585; with NCI-H295R it was 545.
For `O=C(O)c1cnn(-c2nc3cc(Cl)c(OC(F)(F)F)cc3[nH]2)c1`, the entries for the “area under concentration-response curve” value with CU-ACC2 and in the assay on NCI-H295R were 605 and 548, respectively.
Consider `Cc1ccc2c(=O)c3cccc(CC(=O)O)c3oc2c1C`, for which the figures for the “area under concentration-response curve” value in the assay with CU-ACC2 and with NCI-H295R were 540 and 486, respectively.
The like results for `CC1=C(C=CC=C1)N2/N=C(\C=C/C2=O)C3=C4NC[C@@H](CO)C[N]4N=C3C5=CC=C(F)C=C5` were, in that order, 422 and 435.
Regarding `COc1ccc2[nH]c([S+]([O-])Cc3ncc(C)c(OC)c3C)nc2c1` (configuration not stated), the “area under concentration-response curve” value in the assay with CU-ACC2 turned out to be 624; with NCI-H295R, 576.
For `C[C@@H](NC1=CC=CC=C1C(O)=O)C/2=C/C(=C\N3C(=O)/C=C(\N=C23)N4CCOCC4)C`, the “area under concentration-response curve” value in the assay on CU-ACC2 was 535; with NCI-H295R, 543.
For the compound `COc1ccc(C(=O)CC(=O)c2ccc(C(C)(C)C)cc2)cc1`, the figures for the “area under concentration-response curve” value in the assay on CU-ACC2 and in the assay on NCI-H295R were 595 and 543, respectively.
The like results for `O=C(O)CCNc1cc(N2CCc3ccccc3CC2)nc(-c2ccccn2)n1` were, in that order, 486 and 490.
For the compound `C[C@@H]1Cc2c([nH]c3ccccc23)[C@@H](c2c(F)cc(/C=C/C(=O)O)cc2F)N1CC(C)(C)F`, the results for the “area under concentration-response curve” value in the assay with CU-ACC2 and in the assay on NCI-H295R were 615 and 593, respectively.
As to `NC/1=N/C2=C(N=C[N]2[C@H]3C[C@H](O)[C@@H](CO)C3=C)C(=O)N1`, the “area under concentration-response curve” value stood at 589 with CU-ACC2 and 521 in the assay with NCI-H295R.
As for `NC\1=N\C(=O)N(\C=C1)[C@@H]2O[C@H](CO)[C@@H](O)[C@@H]2O`, the “area under concentration-response curve” value in the assay on CU-ACC2 was 551; in the assay with NCI-H295R, 504.
The like results for `CC1CC2=CC=CC=C2N1C(=O)C\C3=N\C(=O)\C=C(/N3)N4CCOCC4` (configuration not stated) were, in that order, 579 and 548.
Turning to `CC(=O)Oc1ccccc1C(=O)Nc1ncc([N+](=O)[O-])s1`, the entries for the “area under concentration-response curve” value in the assay with CU-ACC2 and in the assay with NCI-H295R were 634 and 590, respectively.
Taken in the same sequence, the figures for `CN1CCN(c2ccc([N+](=O)[O-])c3no[n+]([O-])c23)CC1` were 630 and 583.
On to `CCC(c1ccc(O)cc1)C(CC)c1ccc(O)cc1` (configuration not stated), for which the results for the “area under concentration-response curve” value in the assay on CU-ACC2 and in the assay with NCI-H295R were 656 and 607, respectively.
With `Cc1c(-c2c(-c3ccc(F)o3)sc3ncnc(O[C@@H](Cc4ccccc4OCc4ccnn4CC(F)(F)F)C(=O)O)c23)ccc(OCCN2CCN(C)CC2)c1Cl`, the “area under concentration-response curve” value in the assay on CU-ACC2 is 600; in the assay on NCI-H295R, 529.
Take `Cn1c(-c2ccccc2C(F)(F)F)nnc1C12CCC(c3noc(C4CC(F)(F)C4)n3)(CC1)CC2`: the “area under concentration-response curve” value amounted to 594 in the assay with CU-ACC2 and 546 in the assay with NCI-H295R.
With `Nc1cccc([S+](=O)([O-])N2CCCN([S+](=O)([O-])c3ccc4c(c3)OCCO4)CC2)c1`, the “area under concentration-response curve” value in the assay with CU-ACC2 stood at 634; with NCI-H295R it was 546.
Turning to `COC1=CC2=C(C=C1OCCCN3CCCC3)\N=C(N)/C24CCC4`, the results for the “area under concentration-response curve” value in the assay on CU-ACC2 and in the assay on NCI-H295R were 578 and 547, respectively.
With `Cc1cc(N2CCOCC2)ccc1Nc1nc(NC2CCCCC2)c2nc[nH]c2n1`, the figures for the “area under concentration-response curve” value in the assay on CU-ACC2 and with NCI-H295R were 587 and 539, respectively.
Taken in the same sequence, the figures for `O=C(COCC(=O)N1CCN(C(c2ccccc2)c2ccccc2)CC1)Nc1ccc(Cl)cc1C(=O)O` were 529 and 538.
For the compound `CC/1=N/C2=CC=CC(=C2C(=O)N1C3CCC(=O)NC3=O)N` (configuration not stated), the “area under concentration-response curve” value in the assay with CU-ACC2 was 635; with NCI-H295R it was 575.
Taken in the same sequence, the figures for `CC/1=C/2C[C@H]3C(=C)CCC[C@]3(C)/C=C2OC1=O` were 593 and 524.
As for `CN(C(Cc1ccc(OS(=O)(=O)c2cccc3cnccc23)cc1)C(=O)N1CCN(c2ccccc2)CC1)S(=O)(=O)c1cccc2cnccc12` (configuration not stated), the results for the “area under concentration-response curve” value in the assay on CU-ACC2 and in the assay on NCI-H295R were 627 and 576, respectively.
Consider `O=C(NC[C@H](O)CN1CCc2ccccc2C1)c1cc(NC2COC2)ncn1`, for which the “area under concentration-response curve” value is 367 with CU-ACC2 and 429 in the assay on NCI-H295R.
As to `CCCC[N+]1(C)[C@@H]2CC(OC(=O)[C@H](CO)c3ccccc3)C[C@H]1[C@@H]1O[C@@H]12` (some centres not stated), the “area under concentration-response curve” value worked out at 630 in the assay on CU-ACC2 and 568 in the assay with NCI-H295R.
For `Cc1cc(-c2cc(OC(=O)c3ccccc3)ccc2Cl)cc2nnc(Nc3ccc(OCCN4CCCC4)cc3)nc12`, the “area under concentration-response curve” value in the assay with CU-ACC2 is 664; with NCI-H295R, 612.
The like results for `NC(=O)C/1=C(O)/[C@]2(O)[C@@H](C[C@@H]\3CC4=C(C(=CC=C4)O)\C(=C3C2=O)O)CC1=O` were, in that order, 640 and 586.
As for `O=C1c2c(O)cc(O)cc2O[C@H](c2ccc(O)c(O)c2)[C@H]1O`, the “area under concentration-response curve” value in the assay with CU-ACC2 came out at 583; in the assay on NCI-H295R, 539.
As to `CC[C@H](NC1=C2[NH]C=NC2=NC=N1)/C3=C(/C(=O)C4=CC=CC=C4O3)C5=CC=CC(=C5)F`, the “area under concentration-response curve” value in the assay on CU-ACC2 amounted to 432; in the assay with NCI-H295R, 488.
The like results for `CN1C(=O)COc2c(C(=O)NC3CN4CCC3CC4)cc(Cl)cc21` (configuration not stated) were, in that order, 550 and 533.
As to `Cc1cc(NC(=O)Nc2ccc(N(C)C)cc2)c2cc(F)cc(F)c2n1`, the “area under concentration-response curve” value amounted to 667 with CU-ACC2 and 613 in the assay on NCI-H295R.
On to `CNC(=O)c1ccc(N2C(=S)N(c3ccc(C#N)c(C(F)(F)F)c3)C(=O)C2(C)C)cc1F`, for which the “area under concentration-response curve” value was found to be 559 in the assay on CU-ACC2 and 499 in the assay on NCI-H295R.
On to `CN1C(=O)\C(=C/C2=C1N=C(NC3CCOCC3)N=C2)OC4=C(F)C=C(F)C=C4`, for which the entries for the “area under concentration-response curve” value in the assay on CU-ACC2 and with NCI-H295R were 611 and 565, respectively.
As to `NC(=S)N/N=C/c1ncccc1N`, the entries for the “area under concentration-response curve” value with CU-ACC2 and in the assay with NCI-H295R were 442 and 440, respectively.
For `C/C(=N\NC(=O)c1cccc([S+](=O)([O-])N2CCOCC2)c1)c1cc(Cl)ccc1O`, the “area under concentration-response curve” value came to 640 with CU-ACC2 and 597 with NCI-H295R.
Take `COC(=O)N(CC(=O)O)Cc1cccc(OCc2nc(-c3ccc(Cl)cc3)oc2C)c1`: the “area under concentration-response curve” value worked out at 553 with CU-ACC2 and 452 with NCI-H295R.

The values are drawn from the supplement of paper PMC10949913.
